Laboratory results reported in article PMC12040169 (PLOS Biology, 2025).

Assay: in vitro
Conditions: human, hela cells, % viability

Row | Compound | viability at 28.5 h, 10 µM | viability at 28.5 h, 10 µM (bulk resorufin, single well)
1 | Cc1ccc(O)c(Nc2ncnc3ccc(Br)cc23)c1 [CBK269028C] | 98.3% | –
2 | Cc1ccc(CCC(=O)Nc2ccc(S(N)(=O)=O)cc2)o1 [CBK269031] | 99.9% | –
3 | O=C(c1ccc(N2CCN(C3CC(=O)N(Cc4cccs4)C3=O)CC2)cc1)c1cccnc1 (stereo not drawn) [CBK269040] | 98.5% | –
4 | Cn1c(=O)n(C)c2cc(NC(=O)CSc3nc(Nc4ccccc4)nc(N4CCOCC4)n3)ccc21 [CBK269041] | 111% | –
5 | COc1ccc(OC)c(NC(=O)CSc2nnc(-c3cccnc3)s2)c1 [CBK269043] | 78.3% | –
6 | COc1cc(C)c(Cl)cc1S(=O)(=O)NCCCN1CCOCC1 [CBK269044] | 97.1% | –
7 | CCCOc1ccc(S(=O)(=O)NCCN2CCOCC2)c2ccccc12 [CBK269045] | 99.1% | –
8 | COc1ccccc1NC(=N)Nc1nc(CSc2nc3ccccc3s2)cc(=O)[nH]1 [CBK269046] | 86% | –
9 | NCCSC1CC(=O)N(Cc2cccs2)C1=O (stereo not drawn) [CBK269047C] | 92.3% | –
10 | Nc1ncnc2c1ncn2CCN1CCOCC1 [CBK269049] | 104% | –
11 | CC(Oc1ccccc1)C(=O)N1CCN(C/C=C/c2ccccc2)CC1 (stereo not drawn) [CBK269050] | 98% | –
12 | O=C(Nc1ccc(N2CCN(C(=O)c3ccco3)CC2)cc1)c1cc([N+](=O)[O-])ccc1N1CCOCC1 [CBK269052] | 91.6% | –
13 | Cc1cc(C)cc(NC(=O)C2CC(=O)N=C(NCc3ccccc3)N2)c1 (stereo not drawn) [CBK269054] | 87.1% | –
14 | O=C(c1cc2nc(-c3ccccc3)cc(-c3ccccc3)n2n1)N1CCN(C(=O)c2ccco2)CC1 [CBK269056] | 99.4% | –
15 | COc1cc(/C=C(/C#N)c2ccc(C(=O)O)cc2)ccc1OCc1cccc([N+](=O)[O-])c1 [CBK269057] | 108% | –
16 | CCCOc1ccc(S(=O)(=O)NCc2ccc3c(c2)OCO3)c2ccccc12 [CBK269059] | 94.3% | –
17 | Cc1ccc(-c2cc(=O)c3cc(OCC(=O)Nc4sc5c(c4C#N)CCCC5)ccc3o2)cc1 [CBK269062] | 96.6% | –
18 | Cc1ccc(C)c(OCC(=O)N(Cc2nc(-c3ccccc3)no2)C2CCCCC2)c1 [CBK269067] | 89.4% | –
19 | O=C(c1ccncc1)n1nc(NCc2ccccc2)nc1NCc1ccccc1 [CBK269069] | 89.5% | –
20 | COc1ccc(-n2c(S)nnc2-c2cc(C(C)(C)C)n[nH]2)cc1 [CBK269071] | 97.9% | –
21 | O=C(O)c1cc2ncc(-c3n[nH]cc3[N+](=O)[O-])cn2n1 [CBK269072] | 100% | –

Row | Compound | viability at 28.5 h, 10 µM | viability at 28.5 h, 10 µM (bulk resorufin, single well)
22 | Cc1cccc(C(=O)Nc2ccc(C(=O)NNC(=O)C(C)(C)C)cc2)c1 [CBK269073] | 111% | –
23 | Cn1c(SCCC(=O)O)nnc1-c1cccnc1 [CBK269077] | 108% | –
24 | COc1nc(N(C)C)nc(N2CC(=O)N(c3ccccc3)C2=N)n1 [CBK269079] | 87.6% | –
25 | Cc1cc(C)c(C)c(S(=O)(=O)N(CCO)CCO)c1C [CBK269082] | 90.5% | –
26 | CCCNC(=O)c1ccc(C)c(S(=O)(=O)Nc2ccc(C)cc2C)c1 [CBK269084] | 88.8% | –
27 | O=C(NCc1ccccc1Cl)C1CCCN(S(=O)(=O)c2ccccc2)C1 (stereo not drawn) [CBK269086] | 92.8% | –
28 | O=C(CSc1nnc(CN2CCOCC2)n1-c1ccc(Cl)cc1)N1CCN(c2ccccc2)CC1 [CBK269088] | 96.9% | –
29 | Cc1ccccc1-c1noc(CSc2nnc(-c3ccncc3)n2-c2ccc(F)cc2)n1 [CBK269089] | 96.8% | –
30 | CCN1CCN(C(=O)c2ccc3nc(-c4ccccc4)c(-c4ccccc4)nc3c2)CC1 [CBK269090] | 94.7% | –
31 | COc1ccc(C)cc1S(=O)(=O)N(CC(=O)O)c1ccc(Cl)c(Cl)c1 [CBK269095] | 104% | –
32 | CN1CCC(N(C)C(=O)c2ccc3nccnc3c2)CC1 [CBK269096] | 108% | –
33 | N#C/C(=C/c1cc(Cl)c(OCc2ccc([N+](=O)[O-])cc2)c(Cl)c1)c1ccc(C(=O)O)cc1 [CBK269098] | 105% | –
34 | COC(=O)c1ccccc1NC(=O)CNC(=O)c1ccccc1Cl [CBK269113] | 88.8% | –
35 | N#Cc1ccccc1COC(=O)c1cc(-c2ccc(/C=C/c3nc(O)c([N+](=O)[O-])c(=O)[nH]3)o2)ccc1Cl [CBK269115] | 101% | –
36 | CC(NS(=O)(=O)c1ccc(OCC(=O)N2CCc3ccccc3C2)c(Cl)c1)c1ccccc1 (stereo not drawn) [CBK269117] | 92% | –
37 | O=C(O)CCC(=O)Nc1ccc(C(=O)N2CCCc3ccccc32)cc1 [CBK269118] | 114% | –
38 | O=C(CCCc1nc(-c2ccccc2Cl)no1)Nc1cccnc1 [CBK269122] | 91.6% | –
39 | CCOc1ccc(N2C(=O)CC(N3CCN(c4ccc(C(=O)c5ccncc5)cc4)CC3)C2=O)cc1 (stereo not drawn) [CBK269124] | 86.5% | –
40 | CC(=O)Nc1ccc(S(=O)(=O)Nc2cccc(-c3cn4cccnc4n3)c2)cc1 [CBK269125] | 74.9% | –
41 | N#Cc1c(NC(=O)CN2CCc3ccccc3C2)sc2c1CCCC2 [CBK269126] | 105% | –
42 | Cc1ccc(C(=O)NC(=S)Nc2ccc(-c3ccc(CO)o3)cc2)cc1[N+](=O)[O-] [CBK269127] | 110% | –

Row | Compound | viability at 28.5 h, 10 µM | viability at 28.5 h, 10 µM (bulk resorufin, single well)
43 | COc1cc(NC(=O)c2cc([N+](=O)[O-])ccc2N2CCOCC2)ccc1-c1cc2ccccc2oc1=O [CBK269128] | 84.9% | –
44 | O=C(O)CCC(=O)Nc1cccc(C(=O)Nc2ccc(Br)cc2)c1 [CBK269129] | 94.6% | –
45 | CN(C)CCCNC(=O)c1cc2cc(Cl)cc(Cl)c2oc1=O [CBK269132C] | 90.2% | –
46 | O=C(Nc1cccc(Cl)c1)C1CCC(C(=O)Nc2cccc(Cl)c2)CC1 (stereo not drawn) [CBK269136] | 85.8% | –
47 | O=C1NC(=S)N(Cc2ccccc2)C(=O)C1(CCc1ccncc1)CCc1ccncc1 [CBK269137] | – | 106%
48 | NC(=O)c1c(NC(=O)Cn2ccc([N+](=O)[O-])n2)sc2c1CCCC2 [CBK269139] | 113% | –
49 | CN1C(=O)c2cccc3c(S(=O)(=O)N4CCN(S(=O)(=O)c5ccc6c7c(cccc57)C(=O)N6C)CC4)ccc1c23 [CBK269140] | 98.2% | –
50 | Cc1cc2nc(/C(C#N)=C\c3cn(CC(=O)Nc4ccc(F)cc4)c4ccccc34)[nH]c2cc1C [CBK269142] | 113% | –
51 | Cn1c(CSCc2ccccc2F)nnc1SCC(=O)c1ccc(Br)cc1 [CBK269143] | 92.3% | –
52 | O=C(COc1ccc(S(=O)(=O)N2CCCCC2)cc1)N1CCN(Cc2ccccc2)CC1 [CBK269144] | 87.1% | –
53 | O=C(COc1ccccc1)n1nc(-c2ccco2)nc1NCc1cccs1 [CBK269145] | 85.7% | –
54 | O=C(c1cccs1)n1nc(NCc2ccccc2)nc1NCc1ccccc1 [CBK269149] | 107% | –
55 | O=S(=O)(N1CCCCCC1)N1CCN(S(=O)(=O)N2CCOCC2)CC1 [CBK269152] | 100% | –
56 | Cc1cc(C)c(C)c(S(=O)(=O)NCCOCCO)c1C [CBK269153] | 88.6% | –
57 | COc1ccc(CCN2C(=O)c3[nH]nc(-c4cc(C)c(C)cc4O)c3C2c2ccccc2)cc1 (stereo not drawn) [CBK269154] | 106% | –
58 | O=C(CSCc1c(F)cccc1Cl)NCc1ccccc1Cl [CBK269155] | 91.6% | –
59 | O=C(O)CCCNC(=O)C(O)(c1ccccc1)c1ccccc1 [CBK269156] | – | 95.5%
60 | O=C(Nc1ccc(Cc2ccncc2)cc1)c1cc([N+](=O)[O-])n[nH]1 [CBK269157] | 99.4% | –
61 | COc1cc(CNC2CCCCC2)cc(I)c1OCC(N)=O [CBK269158C] | 117% | –
62 | CCS(=O)(=O)Nc1ccc(C2=NN(S(=O)(=O)c3ccc(F)cc3)C(c3ccccc3C)C2)cc1 (stereo not drawn) [CBK269161] | 103% | –
63 | COc1ccccc1N1CCN(CC(=O)NC2CC3CCC2C3)CC1 (stereo not drawn) [CBK269162] | 94.8% | –

Row | Compound | viability at 28.5 h, 10 µM | viability at 28.5 h, 10 µM (bulk resorufin, single well)
64 | Cc1nc2sc3c(c2c2nc(CCC(=O)O)nn12)CC(C)(C)OC3 [CBK269168] | 81.4% | –
65 | Cc1cc(C)c2c(CC(=O)NNC(=O)COc3ccccc3)coc2c1 [CBK269169] | 94.1% | –
66 | O=S(=O)(Cc1ccccc1Cl)NCCN1CCOCC1 [CBK269171] | 102% | –
67 | Cc1ccccc1C(=O)NCCCNC(=O)c1ccccn1 [CBK269172] | 96.7% | –
68 | CC(=O)N1CCc2c(sc3nc(N)c(C(=O)NCCc4ccc(F)cc4)c(C(F)(F)F)c23)C1 [CBK269176] | 94.4% | –
69 | COc1ccc(OCC(=O)Nc2ccccc2N2CCN(S(C)(=O)=O)CC2)cc1 [CBK269177] | 89.9% | –
70 | Cc1cccc2cc(CN(Cc3ccco3)C(=O)C3CCCCC3)c(O)nc12 [CBK269178] | 102% | –
71 | Cc1ccc(C(=O)O)cc1NC(=O)c1ncn(-c2ccccc2)n1 [CBK269181] | 114% | –
72 | CC(=O)c1ccc(NC(=O)CSc2nnc(-c3ccncc3)s2)cc1 [CBK269183] | 85.1% | –
73 | CC1CCCCN1Cc1nc2c(c(=O)n(C)c(=O)n2C)n1Cc1ccc(Br)cc1 (stereo not drawn) [CBK269184] | 95.3% | –
74 | COc1cc(S(=O)(=O)NCCCn2ccnc2)ccc1Cl [CBK269186] | 89.1% | –
75 | Cc1ccc(C(=O)C2=C(O)C(=O)N(CCCN3CCOCC3)C2c2ccccn2)o1 (stereo not drawn) [CBK269187] | 89.7% | –
76 | COc1ccc(NC(=O)CN2CCN(c3ccccc3OC)CC2)c([N+](=O)[O-])c1 [CBK269188] | 94.7% | –
77 | Cn1c(=O)c2c(nc(CN3CCOCC3)n2CC(=O)c2ccccc2)n(C)c1=O [CBK269195] | 93.2% | –
78 | O=C(NCC(O)c1ccccc1)c1ccc(Cl)c(S(=O)(=O)N2CCCCC2)c1 (stereo not drawn) [CBK269197] | 81% | –
79 | Cc1ccccc1Cn1c(CN2CCCCC2C)nc2c1c(=O)n(C)c(=O)n2C (stereo not drawn) [CBK269199] | 91.2% | –
80 | CC(SCC(=O)Nc1ccc(F)cc1)c1nc2ccccc2c(=O)[nH]1 (stereo not drawn) [CBK269200] | 105% | –
81 | O=C1NC2CCCCC2NC1CC(=O)N1CCN(C(c2ccccc2)c2ccccc2)CC1 (stereo not drawn) [CBK269201] | 88.7% | –
82 | Cn1c(=O)n(CCN2CCOCC2)c(=O)c2c1nc1n2CCN1c1ccc(Oc2ccccc2)cc1 [CBK269202] | 91.4% | –
83 | CCOC(=O)CC(=O)COc1nc2cc3c(nc2o1)CCCC3 [CBK269204] | 89.8% | –
84 | CC(=O)c1ccc(NC(=O)CSc2nnc(-c3ccc4ccccc4n3)s2)cc1 [CBK269205] | 97.6% | –
